Experimental data: ChEMBL document CHEMBL1136959, “Hit-to-lead optimization of pyrrolo[1,2-a]quinoxalines as novel cannabinoid type 1 receptor antagonists” (Bioorg Med Chem Lett, 2009)

Biological target: Cannabinoid receptor 1 (Rattus norvegicus) (UniProt P20272)
Assay: Displacement of [3H]SR141716A from CB1 receptor in rat cerebellum membrane at 1 uM
Assay type: cell membranes

Sequence of Cannabinoid receptor 1 (Rattus norvegicus) (P20272 whole entry): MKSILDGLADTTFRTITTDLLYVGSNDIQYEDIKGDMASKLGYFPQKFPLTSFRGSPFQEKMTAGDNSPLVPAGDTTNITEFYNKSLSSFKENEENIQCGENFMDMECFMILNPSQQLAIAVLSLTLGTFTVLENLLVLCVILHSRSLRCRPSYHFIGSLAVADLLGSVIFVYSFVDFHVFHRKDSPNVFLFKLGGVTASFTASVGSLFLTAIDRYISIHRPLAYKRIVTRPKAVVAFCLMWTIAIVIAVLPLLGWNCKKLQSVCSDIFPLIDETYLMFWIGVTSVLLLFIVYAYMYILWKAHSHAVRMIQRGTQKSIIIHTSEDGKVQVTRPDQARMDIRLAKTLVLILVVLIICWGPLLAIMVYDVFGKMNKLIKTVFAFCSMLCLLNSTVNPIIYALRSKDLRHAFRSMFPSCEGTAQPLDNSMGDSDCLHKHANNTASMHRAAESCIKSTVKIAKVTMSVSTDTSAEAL

Structure (SMILES) | inhibition
COc1ccc(C2c3cccn3-c3ccccc3N2C(=O)CN(C)C(=O)C(C)Cl)cc1 (centres undefined) | 46%
COc1ccc(C2c3cccn3-c3ccccc3N2C(=O)CN(C(=O)C(C)Cl)C2CC2)cc1 (centres undefined) | 40%
CCCCN(CC(=O)N1c2ccccc2-n2cccc2C1c1cc(OC)ccc1OC)C(=O)C(C)Cl (centres undefined) | 45%
COc1ccc(C2c3cccn3-c3ccccc3N2C(=O)CNC(=O)C(C)Cl)cc1 (centres undefined) | 25%
CCCCN(CC(=O)N1c2ccccc2-n2cccc2C1CC)C(=O)C(C)Cl (centres undefined) | 14%
CCCCN(CC(=O)N1c2ccccc2-n2cccc2C1C)C(=O)C(C)Cl (centres undefined) | 15%

Other lines, results leading:

inhibition | Structure (SMILES)
36% | CCCCN(CC(=O)N1c2ccccc2-n2cccc2C1c1ccccc1OC)C(=O)C(C)Cl (centres undefined)
31% | CCCCN(CC(=O)N1c2ccccc2-n2cccc2C1c1ccc(OC)cc1)C(C)=O (centres undefined)

Biological target: Cannabinoid receptor 1 (Rattus norvegicus, UniProt P20272)
Sequence (P20272 whole entry): as above
Assay: Displacement of [3H]SR141716A from CB1 receptor in rat cerebellum membrane
Assay type: cell membranes

Structure (SMILES) | Ki
CCCCN(CC(=O)N1c2ccccc2-n2cccc2C1c1ccc(OC)cc1)C(=O)COC (centres undefined) | 461 nM
COc1ccc(C2c3cccn3-c3ccccc3N2C(=O)CN(C(=O)C(C)Cl)C(C)C)cc1 (centres undefined) | 220 nM
CCCCN(CC(=O)N1c2ccccc2-n2cccc2C1c1ccc(OC)cc1)C(=O)c1ccccc1C (centres undefined) | 503 nM
CCCCN(CC(=O)N1c2ccccc2-n2cccc2C1c1ccc(OC)cc1)C(=O)C1CC1 (centres undefined) | 78 nM
CCCCN(CC(=O)N1c2ccccc2-n2cccc2C1c1ccc(OC)cc1)C(=O)c1cc(Cl)cc(Cl)c1 (centres undefined) | 831 nM
CCCCN(CC(=O)N1c2ccccc2-n2cccc2C1c1ccc(OC)cc1)C(=O)C1CCCC1 (centres undefined) | 602 nM
CCCCN(CC(=O)N1c2ccccc2-n2cccc2C1c1ccc(OC)cc1)C(=O)c1ccccc1Cl (centres undefined) | 137 nM
CCCCN(CC(=O)N1c2ccccc2-n2cccc2C1c1ccc(OC)cc1)C(=O)C1CCC1 (centres undefined) | 214 nM
CCCCN(CC(=O)N1c2ccccc2-n2cccc2C1c1ccc(OC)cc1)C(=O)c1ccccc1F (centres undefined) | 349 nM

The remaining lines, values ahead:

Ki | Structure (SMILES)
46 nM | CCCCN(CC(=O)N1c2ccccc2-n2cccc2C1c1ccc(OC)cc1)C(=O)C(C)Cl (centres undefined)
539 nM | CCCCN(CC(=O)N1c2ccccc2-n2cccc2C1c1ccc(OC)cc1)C(=O)CC (centres undefined)
162 nM | CCCCN(CC(=O)N1c2ccccc2-n2cccc2C1c1ccc(F)cc1)C(=O)C(C)Cl (centres undefined)
124 nM | CCCCN(CC(=O)N1c2ccccc2-n2cccc2C1c1ccc(OC)cc1)C(=O)C(C)C (centres undefined)
45 nM | CCCCN(CC(=O)N1c2ccccc2-n2cccc2C1c1ccc(Cl)cc1)C(=O)C(C)Cl (centres undefined)
236 nM | CCCCN(CC(=O)N1c2ccccc2-n2cccc2C1c1ccc(OC)cc1)C(=O)CC(C)C (centres undefined)
260 nM | CCCCN(CC(=O)N1c2ccccc2-n2cccc2C1c1ccccc1)C(=O)C(C)Cl (centres undefined)
